Drawing on PubChem BioAssay AID1918994 (Molecular Pharmacology Branch, DTP, NCI, 2023), this text covers viability, T/C and IC50 for 9 molecules.

Broadly, the viability, T/C is the ratio of treated to control. In general, IC50 refers to the midpoint of a concentration-inhibition curve.

The test system of the assay is 292921-168-R-J2-PDC complex spheroid growth. Description: Anticancer human tumor 292921-168-R-J2-PDC patient-derived pancreatic carcinoma cell line growth inhibition [AhR]. Particulars: for viability, T/C: stronger effect = lower value; for IC50: curve of compound. The source says: Multicellular complex tumor spheroid response to aryl hydrocarbon receptor antagonists in combination with a variety of drugs and investigational agents in selected tumor cell lines
The current study was undertaken to assess response to aryl hydrocarbon receptor antagonists in combination with standard-of-care drugs and investigational agents in solid tumor complex spheroid models. Complex spheroids include a stromal component modeled by human endothelial cells (HUVEC) and fibroblasts modeled by human mesenchymal stem cells (MSCs). The concentration ranges selected for each drug and investigational agent were based upon clinically achievable concentrations if the clinical Cmax of the agent was known.
Compounds. The drugs and investigational agents: BAY 2416964 (NSC825713), GNF351 (NSC835774), CH-223191 (NSC835775), CPI-455 (NSC825282), aza-TdCyd (NSC777586), decitabine (NSC127716), belinostat (NSC758774), entinostat (NSC756642), pevonedistat (NSC761192), tazemetostat (NSC777109), talazoparib (NSC765396), olaparib (NSC753686), selinexor (NSC780203), nedisertib (M3814, NSC802822), bortezomib (NSC756655), venetoclax (NSC766270), doxorubicin (NSC123127), elimusertib (BAY189344, NSC800525), ceralasertib (AZD6738, NSC777638), TAK-243 (NSC785004), alisertib (NSC759677), etoposide (NSC141540), topotecan (NSC609699), eribulin (NSC707389), gemcitabine (NSC613327), carboplatin (NSC241240), cisplatin (NSC119875), and SN-38 (NSC673596) were obtained from the National Cancer Institute (NCI) Developmental Therapeutics Program Chemical Repository (32). The FDA-approved anticancer drug set is available from the Developmental Therapeutics Program at https://dtp.cancer.gov/organization/dscb/obtaining/available plates.htm. […] The stock solutions were prepared in dimethyl sulfoxide (DMSO, Sigma-Aldrich, St. Louis, MO, cat. D2650), except for the platinum compounds which were prepared in saline (Quality Biological, Gaithersburg, MD, cat. 114-055-101), at 800-fold the tested concentration and stored at -70 degrees C prior to their use. All drugs and investigational agents were tested over a range starting from a high concentration at or near the clinical Cmax and decreasing in half-log increments. If the clinical Cmax for an agent had not been determined, the highest concentration tested was 10 microM (Table 1).
Cell Culture. All cells were maintained in an incubator at 37 degrees C and 5% CO2 with 95% humidity. The PDC lines were cultured according to standard operating procedures established by the NCI PDMR (https://pdmr.cancer.gov). Briefly, all PDCs were thawed and cultured in Matrigel-coated flasks prepared with a working solution of 1X Ham's F-12 nutrient mix, without supplementation (Invitrogen, Waltham, MA, cat. 11765054), 100 U/mL penicillin-streptomycin (Invitrogen, cat. 15140122), and 2.5% Matrigel (Corning Inc., Corning, NY, cat. 354248) for the first three passages. All PDCs were cultured in complete DMEM/F-12 media containing advanced DMEM/F-12 (Invitrogen, cat. 12634028), 4.9% defined fetal bovine serum, heat inactivated (HyClone Laboratories Inc., Logan, UT, cat. SH30070.03HI), 389 ng/mL hydrocortisone (Sigma-Aldrich, cat. H4001), 9.7 ng/mL human EGF recombinant protein (Invitrogen, cat. PHG0313), 23.4 microg/mL adenine (Sigma-Aldrich, cat. A2786), 97.3 U/mL penicillin-streptomycin (Invitrogen, cat. 15140122), 1.9 mM L-glutamine (Invitrogen, cat. 25030081), and 9.7 microM Y-27632 dihydrochloride (Tocris Bioscience, Bristol, United Kingdom, cat. 1254). The PDCs were cultured in complete DMEM/F12 media without 10 microM Y-27632 dihydrochloride for at least two passages prior to the screen. The established cell lines NCI-H1341 and […] were cultured in DMEM/F-12, HEPES (Invitrogen, cat. 11330032), 5% defined fetal bovine serum (HyClone Laboratories Inc., cat. SH30070.03), ITS premix universal culture supplement [insulin (5 microg/mL), transferrin (5 microg/mL), and selenious acid (5 ng/mL)] […]

Structures are written as SMILES. Values joined by “and” are separate entries in the source; they are usually repeats but may differ in a detail not shown here. Equal entries are not always repeated.
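Also: spheroids exposed to compounds for seven days after three days of growth.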

For `CC(C)CC(NC(=O)C(Cc1ccccc1)NC(=O)c1cnccn1)B(O)O` (configuration not stated), the IC50 is 10.2 nM and 6.92 nM and 5.94 nM. Also, the viability, T/C (compound 0.000949 µM) was 106% and 109% and 104%. Also, the viability, T/C (compound 0.003 µM) is 116% and 121% and 106%. In addition, the viability, T/C (compound 0.00949 µM) was 53.1% and 25.4% and 12.2%. Moreover, the viability, T/C (compound 0.03 µM) is 3.87% and 2.27% and 1.64%. Also, the viability, T/C (compound 0.0949 µM) is 0.72% and 0.67% and 0.85%. Further, the viability, T/C (compound 0.3 µM) was 0.4% and 0.5% and 2.3%.
With `CC1(C)CCC(CN2CCN(c3ccc(C(=O)NS(=O)(=O)c4ccc(NCC5CCOCC5)c([N+](=O)[O-])c4)c(Oc4cnc5[nH]ccc5c4)c3)CC2)=C(c2ccc(Cl)cc2)C1`, the IC50 was 6730 nM and 6620 nM and 6410 nM. Moreover, the viability, T/C (compound 0.0316 µM) was 104% and 92.6% and 102%. For the same molecule, under “compound 0.1 µM”, the viability, T/C was 106% and 105% and 104%. Further, the viability, T/C (compound 0.316 µM) is 108% and 109% and 97.2%. Besides, the viability, T/C (compound 1 µM) was 106% and 116% and 102%. Further, the viability, T/C (compound 3.16 µM) was 102% and 109% and 94%. Moreover, the viability, T/C (compound 10 µM) was 22.7% and 18.6% and 22.2%.
Take `CC1COCCN1c1cc(-c2ccnn2C)c2ccnc(-c3ccn[nH]3)c2n1` (configuration not stated): the half-maximal inhibitory concentration (IC50) was 58 nM and 54.7 nM and 45.7 nM. Further, the viability, T/C (compound 0.00316 µM) is 99.6% and 103% and 96.5%. The viability, T/C (compound 0.01 µM) was 90.4% and 97.9% and 92.8%. Besides, the viability, T/C (compound 0.0316 µM) is 65.1% and 66.1% and 56.9%. In addition, where the note is “compound 0.1 µM”, the viability, T/C was 36.3% and 32.1% and 32.4%. In addition, the viability, T/C (compound 0.316 µM) is 23.2% and 19.6% and 21.7%. The viability, T/C (compound 1 µM) was 19.2% and 17.7% and 17.8%.
For the molecule `CCN(c1cc(-c2ccc(CN3CCOCC3)cc2)cc(C(=O)NCc2c(C)cc(C)[nH]c2=O)c1C)C1CCOCC1`, the concentration for half-maximal inhibition (IC50) is more than 3000 nM. Further, where the note is “compound 0.00949 µM”, the viability, T/C was 98.8% and 103% and 105%. The viability, T/C (compound 0.03 µM) was 106% and 107% and 104%. Further, the viability, T/C (compound 0.0949 µM) is 109% and 96.8% and 96.2%. For the same molecule, the viability, T/C (compound 0.3 µM) is 100% and 97.3% and 98.5%. Besides, the viability, T/C (compound 0.949 µM) was 99.8% and 89.8% and 102%. Also, the viability, T/C (compound 3 µM) was 93.2% and 91% and 90.2%.
In the case of `CC[C@@]1(O)C(=O)OCc2c1cc1n(c2=O)Cc2cc3c(CN(C)C)c(O)ccc3nc2-1`, the IC50 is 45.6 nM and 30.7 nM and 24.4 nM. In addition, the viability, T/C (compound 0.000316 µM) was 110% and 102% and 99.3%. Also, where the note is “compound 0.001 µM”, the viability, T/C is 103% and 107% and 96.5%. In addition, the viability, T/C (compound 0.00316 µM) is 94.2% and 93.7% and 90.6%. Also, the viability, T/C (compound 0.01 µM) is 83.7% and 86.5% and 77.4%. For the same molecule, the viability, T/C (compound 0.0316 µM) is 59.3% and 48.2% and 41.8%. For the same molecule, the viability, T/C (compound 0.1 µM) is 28.4% and 23.3% and 20.4%.
Regarding `CCc1c2c(nc3ccc(O)cc13)-c1cc3c(c(=O)n1C2)COC(=O)[C@]3(O)CC`, the half-maximal inhibitory concentration (IC50) was 3.42 nM and 4.29 nM and 1.79 nM. Further, the viability, T/C (compound 0.000949 µM) was 72.1% and 79.3% and 54.5%. Further, for the setting “compound 0.003 µM”, the viability, T/C was 53.6% and 63.4% and 47.4%. Also, the viability, T/C (compound 0.00949 µM) was 25.5% and 20.2% and 23.6%. Also, the viability, T/C (compound 0.03 µM) is 12.2% and 9.77% and 13%. In addition, for the setting “compound 0.0949 µM”, the viability, T/C was 6.69% and 4.55% and 7%. Also, the viability, T/C (compound 0.3 µM) was 3.7% and 2.95% and 3.56%.
With `COc1cc(C2c3cc4c(cc3C(OC3OC5COC(C)OC5C(O)C3O)C3COC(=O)C23)OCO4)cc(OC)c1O` (configuration not stated), the IC50 is 768 nM and 710 nM and 449 nM. The viability, T/C (compound 0.0316 µM) was 96% and 96.6% and 96.5%. For the setting “compound 0.1 µM”, the viability, T/C is 93.8% and 79.8% and 87.8%. The viability, T/C (compound 0.316 µM) is 66.4% and 73% and 56%. In addition, where the note is “compound 1 µM”, the viability, T/C was 43.2% and 38.8% and 31.6%. The viability, T/C (compound 3.16 µM) is 29% and 26% and 19.7%. Besides, for the setting “compound 10 µM”, the viability, T/C is 13.7% and 15.4% and 10.6%.
Consider `COc1cc(Nc2ncc3c(n2)-c2ccc(Cl)cc2C(c2c(F)cccc2OC)=NC3)ccc1C(=O)O`, for which the viability, T/C (compound 0.0316 µM) is 53.9% and 45.2% and 56.9%; the viability, T/C (compound 0.1 µM) is 49.2% and 45% and 39.5%; the viability, T/C (compound 0.316 µM) is 49.9% and 53.6% and 45.8%; the viability, T/C (compound 1 µM) is 57.9% and 51.2% and 43%; the viability, T/C (compound 3.16 µM) was 49.8% and 40.5% and 41.5%; the viability, T/C (compound 10 µM) is 41.7% and 31.2% and 30.7%.
`COc1cccc2c1C(=O)c1c(O)c3c(c(O)c1C2=O)CC(O)(C(=O)CO)CC3OC1CC(N)C(O)C(C)O1` (configuration not stated): the half-maximal inhibitory concentration (IC50) was less than 31.6 nM. Where the note is “compound 0.0316 µM”, the viability, T/C was 37.4% and 25.9% and 34.4%. The viability, T/C (compound 0.1 µM) was 26.1% and 17.6% and 21.9%. The viability, T/C (compound 0.316 µM) is 10.9% and 4.94% and 7.46%. For the same molecule, the viability, T/C (compound 1 µM) is 0.32% (2×) and 0.28%. For the same molecule, the viability, T/C (compound 3.16 µM) was 0.76% (2×) and 0.73%. The viability, T/C (compound 10 µM) was 2.02% and 2.08% and 3.06%.
